Measurements from PubChem BioAssay (NCI).
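Cultured in 96-well plates, cells were exposed to test compound for 48 hours across five concentrations. TGI: total growth inhibition.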

What was measured:
Assay in all cases: growth of human tumour cells (NCI), 48 h
NCI-H460 lung = test system: NCI-H460 lung
HL-60(TB) leukemia = test system: HL-60(TB) leukemia
RXF-631 renal = test system: RXF-631 renal
ACHN renal = test system: ACHN renal
SK-MEL-28 melanoma = test system: SK-MEL-28 melanoma
IGROV1 ovarian = test system: IGROV1 ovarian
RXF 393 renal = test system: RXF 393 renal
SW-620 colon = test system: SW-620 colon
UACC-257 melanoma = test system: UACC-257 melanoma
SN12C renal = test system: SN12C renal
SNB-75 CNS = test system: SNB-75 CNS
OVCAR-8 ovarian = test system: OVCAR-8 ovarian
KM20L2 colon = test system: KM20L2 colon
HCT-116 colon = test system: HCT-116 colon
CCRF-CEM leukemia = test system: CCRF-CEM leukemia
DMS 273 small cell lung = test system: DMS 273 small cell lung
COLO 205 colon = test system: COLO 205 colon
K-562 leukemia = test system: K-562 leukemia
HCC-2998 colon = test system: HCC-2998 colon
SK-OV-3 ovarian = test system: SK-OV-3 ovarian
A498 renal = test system: A498 renal
DMS 114 small cell lung = test system: DMS 114 small cell lung
SNB-78 CNS = test system: SNB-78 CNS
SNB-19 CNS = test system: SNB-19 CNS
HOP-92 NSCLC = test system: HOP-92 NSCLC
786-0 renal = test system: 786-0 renal
SF-295 CNS = test system: SF-295 CNS
DLD-1 colon = test system: DLD-1 colon
UACC-62 melanoma = test system: UACC-62 melanoma
A549 NSCLC = test system: A549 NSCLC
SF-539 CNS = test system: SF-539 CNS
U251 CNS = test system: U251 CNS
OVCAR-4 ovarian = test system: OVCAR-4 ovarian
M19-MEL melanoma = test system: M19-MEL melanoma
EKVX NSCLC = test system: EKVX NSCLC
HOP-62 NSCLC = test system: HOP-62 NSCLC
LOX IMVI melanoma = test system: LOX IMVI melanoma
LXFL 529 NSCLC = test system: LXFL 529 NSCLC
HOP-18 NSCLC = test system: HOP-18 NSCLC
CAKI-1 renal = test system: CAKI-1 renal
TK-10 renal = test system: TK-10 renal
M14 melanoma = test system: M14 melanoma
HCT-15 colon = test system: HCT-15 colon
OVCAR-3 ovarian = test system: OVCAR-3 ovarian
NCI-H23 lung = test system: NCI-H23 lung
SK-MEL-5 melanoma = test system: SK-MEL-5 melanoma
HT29 colon = test system: HT29 colon
RPMI-8226 leukemia = test system: RPMI-8226 leukemia
MALME-3M melanoma = test system: MALME-3M melanoma
SF-268 CNS = test system: SF-268 CNS
NCI-H522 lung = test system: NCI-H522 lung
SR leukemia = test system: SR leukemia
XF 498 CNS = test system: XF 498 CNS
SK-MEL-2 melanoma = test system: SK-MEL-2 melanoma
MOLT-4 leukemia = test system: MOLT-4 leukemia
UO-31 renal = test system: UO-31 renal
NCI-H226 lung = test system: NCI-H226 lung
OVCAR-5 ovarian = test system: OVCAR-5 ovarian
KM12 colon = test system: KM12 colon

Measured: TGI

COc1cc(Cl)c2c3c(c(C(C)=O)oc13)CCC2
not listed: MALME-3M melanoma | SF-268 CNS | NCI-H522 lung | SR leukemia | XF 498 CNS | SK-MEL-2 melanoma | MOLT-4 leukemia | UO-31 renal | NCI-H226 lung | OVCAR-5 ovarian | KM12 colon
> 100 µM: all other assays above

C=CC1(C(=O)O)CCC(C(C)(C)C)CC1 (centres undefined)
not listed: SK-MEL-28 melanoma | CCRF-CEM leukemia | LOX IMVI melanoma
> 100 µM: all other assays above
